Data set [1] relates to RAW264.7. Briefly: Inhibition of LPS-induced nitric oxide production in mouse RAW264.7 cells pre-incubated for 2 hrs before LPS challenge measured 18 hrs post LPS challenge by Griess method. It counts as functional, cell-based. (Griess reagent forms a coloured azo dye with nitrite.)
The subject of data set [2] is RAW264.7. Briefly: Cytotoxicity against LPS-stimulated mouse RAW264.7 cells after 24 hrs by MTT assay. Type of data set: cell-based. To be noted: RAW264.7, 24 h.
A further data set deals with Mus musculus. Briefly: Antiinflammatory activity in ICR mouse assessed as inhibition of carrageenan-induced paw edema at 10 mg/kg, po administered 30 mins before carrageenan challenge measured after 2 hrs. Type of data set: functional. (The carrageenan paw model is a standard test of acute inflammation.)
Data set [3] concerns RAW264.7. Briefly: cells. To be noted: Mus musculus, RAW264.7, 24 h.
Description: Cytotoxicity against mouse RAW264.7 cells after 24 hrs by MTT assay
Data set [4] is described as follows: Solubility in PBS at pH 7.4 assessed as maximum soluble concentration at 25 degC by nephelometry. Type of data set: physicochemical.
A short description of data set [5]: Solubility in EtOH assessed as maximum soluble concentration at 25 degC by nephelometry. To be noted: ethanol. Type of data set: physicochemical.
Data set [6] relates to RAW264.7. As to the kind of experiment: Inhibition of LPS-induced nitric oxide production in mouse RAW264.7 cells pre-incubated at 100 uM for 2 hrs before LPS challenge measured 18 hrs post LPS challenge by Griess method. It counts as functional, cell-based.
Data set [7] concerns the target T1, Nitric oxide synthase, inducible (Mus musculus, UniProt P29477).
T1 sequence (P29477 whole entry): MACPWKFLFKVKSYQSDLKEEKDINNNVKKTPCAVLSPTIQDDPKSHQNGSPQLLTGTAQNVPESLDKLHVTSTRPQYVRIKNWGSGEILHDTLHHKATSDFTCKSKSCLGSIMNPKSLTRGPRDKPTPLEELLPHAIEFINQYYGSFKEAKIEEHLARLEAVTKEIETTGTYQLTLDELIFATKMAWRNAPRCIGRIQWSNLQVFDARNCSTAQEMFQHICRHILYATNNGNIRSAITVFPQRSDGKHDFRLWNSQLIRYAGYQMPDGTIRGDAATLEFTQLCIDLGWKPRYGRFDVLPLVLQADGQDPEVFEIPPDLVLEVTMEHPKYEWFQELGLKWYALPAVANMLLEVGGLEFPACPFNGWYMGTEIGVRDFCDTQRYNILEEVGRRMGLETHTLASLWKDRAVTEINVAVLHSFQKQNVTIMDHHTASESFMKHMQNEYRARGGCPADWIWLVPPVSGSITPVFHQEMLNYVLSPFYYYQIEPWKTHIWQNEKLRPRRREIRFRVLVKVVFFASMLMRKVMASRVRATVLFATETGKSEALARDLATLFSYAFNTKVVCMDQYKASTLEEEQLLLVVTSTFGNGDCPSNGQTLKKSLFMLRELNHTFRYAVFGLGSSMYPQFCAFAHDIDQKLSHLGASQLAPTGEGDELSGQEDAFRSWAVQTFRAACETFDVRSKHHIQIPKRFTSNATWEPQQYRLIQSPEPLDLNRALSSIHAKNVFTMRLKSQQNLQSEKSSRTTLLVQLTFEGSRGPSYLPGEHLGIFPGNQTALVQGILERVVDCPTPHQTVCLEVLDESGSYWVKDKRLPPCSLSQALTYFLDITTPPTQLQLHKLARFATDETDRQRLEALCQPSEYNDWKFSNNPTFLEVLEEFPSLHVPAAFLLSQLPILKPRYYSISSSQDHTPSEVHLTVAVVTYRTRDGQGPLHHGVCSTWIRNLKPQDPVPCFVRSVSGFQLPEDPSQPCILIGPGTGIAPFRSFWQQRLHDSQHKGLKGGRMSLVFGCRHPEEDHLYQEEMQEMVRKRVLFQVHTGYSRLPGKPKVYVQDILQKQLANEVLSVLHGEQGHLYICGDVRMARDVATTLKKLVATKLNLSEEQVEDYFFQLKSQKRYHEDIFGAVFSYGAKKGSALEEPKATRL
Briefly: Inhibition of iNOS-induced nitric oxide production in LPS-stimulated mouse RAW264.7 cells pre-incubated for 2 hrs before LPS challenge by fluorescence assay. Type of data set: cell-based.

The nature of data set [8]: Half life in Sprague-Dawley rat at 5 mg/kg. Type of data set: ADME, organism-based. Also on record: dose 5 mg/kg. The following applies: in vivo.
A short description of data set [9]: Oral bioavailability in Sprague-Dawley rat at 20 mg/kg. To be noted: in vivo. Type of data set: ADME, organism-based.
The nature of data set [10]: AUC (0 to t) in Sprague-Dawley rat at 5 mg/kg. Also on record: dose 5 mg/kg. It counts as ADME, organism-based. To be noted: plasma.
The subject of another data set is Rattus norvegicus. Briefly: Antiinflammatory activity in CFA-induced Lewis rat arthritis model at 10 mg/kg, po. Set-up: dose 10 mg/kg. Type of data set: functional, organism-based.
Data set [11] in a line: Tmax in Sprague-Dawley rat at 5 mg/kg. Type of data set: ADME, organism-based. Also on record: dose 5 mg/kg. To be noted: in vivo.
Data set [12] is described as follows: Cmax in Sprague-Dawley rat at 5 mg/kg. Type of data set: ADME, organism-based. Also on record: dose 5 mg/kg. The following applies: in vivo.
Data set [13] is described as follows: Half life in Sprague-Dawley rat at 20 mg/kg, po. It counts as ADME, organism-based. Also on record: dose 20 mg/kg, route oral. The following applies: in vivo.
Data set [14] is described as follows: Tmax in Sprague-Dawley rat at 20 mg/kg, po. Type of data set: ADME, organism-based. Set-up: dose 20 mg/kg, route oral. To be noted: in vivo.
Data set [15] is described as follows: AUC (0 to t) in Sprague-Dawley rat at 20 mg/kg, po. Set-up: dose 20 mg/kg, route oral. The following applies: plasma. Type of data set: ADME, organism-based.
The nature of data set [16]: Cmax in Sprague-Dawley rat at 20 mg/kg, po. The following applies: in vivo. Also on record: dose 20 mg/kg, route oral. Type of data set: ADME, organism-based.

What is called IC50 is the concentration that gives 50% inhibition. A low value points to higher potency. As a reminder, the inhibition in vivo is the share of the control response that was lost under treatment. The term kinetic solubility denotes solubility judged after dilution from a stock solution rather than from solid. Broadly, the half-life is how long it takes for the measured level to halve. Read a low half-life as rapid decline. For orientation: bioavailability means dose-corrected exposure relative to a reference, in per cent. A low value points to little systemic uptake. As usually defined, the AUC(0-t) is the area under the concentration-time curve up to a stated or last time point. Read a low AUC(0-t) as low exposure. A word on the Tmax: it is the time at which the peak concentration occurs. The Cmax is the peak of the concentration-time curve.

Molecules are shown by their SMILES. Converted amounts (≈) assume the structure as drawn. The source made the active and inactive calls. The rule behind the calls is not given here.

As for `O=C(COc1ccc(/C=C2\SC(=O)NC2=O)cc1)Nc1cccc(Cl)c1`, the IC50 in the data set with RAW264.7 [1] was 21.3 µM; in the data set on RAW264.7 [2], over 80 µM; in the data set on RAW264.7 [3], over 80 µM. The inhibition in vivo at 10 mg/kg in the data set on Mus musculus amounted to 37.8%. Moreover, the solubility (kinetic) is under 500 µg/mL in [4] and 1500 µg/mL (≈ 3.86 mM) in [5].

As to `C#CCN1C(=O)S/C(=C\c2ccc(OCC(=O)Nc3cccc(Cl)c3)cc2)C1=O`, the inhibition entry in the data set with RAW264.7 [6] is “Active”.

For `O=C(COc1cccc(/C=C2\SC(=O)NC2=O)c1)Nc1cccc(Cl)c1`, the inhibition result in the data set on RAW264.7 [6] was “Active”.

`COc1ccc2c(c1)c(CC(=O)O)c(C)n2C(=O)c1ccc(Cl)cc1` [INDOMETHACIN]: the IC50 is 40.3 µM with RAW264.7 [1], over 80 µM in the data set on RAW264.7 [2] and over 80 µM in the data set on RAW264.7 [3]. For the same compound, the inhibition in vivo at 10 mg/kg in the data set on Mus musculus is 33.5%.

Take `O=C(COc1ccc(/C=C2\SC(=O)N(CCN3CCCC3)C2=O)cc1)Nc1cccc(Cl)c1`: the inhibition result with RAW264.7 [6] was “Active”.

Consider `CC(CN(C)C)CN1C(=O)S/C(=C\c2ccc(OCC(=O)Nc3cccc(Cl)c3)cc2)C1=O` (centres undefined), for which the IC50 in the data set on RAW264.7 [1] was 53.2 µM; with RAW264.7 [2], over 80 µM; in the data set with RAW264.7 [3], over 80 µM; in data set [7] it was 32.1 µM. In addition, the inhibition entry in the data set on RAW264.7 [6] is “Active”.

Regarding `O=C(COc1ccc(/C=C2\SC(=O)N(CC(=O)Nc3ccccc3)C2=O)cc1)Nc1cccc(Cl)c1`, in the data set on RAW264.7 [6], the inhibition result was “Active”.

As to `O=C(COc1ccc(C=C2C(=O)NC(=S)NC2=O)cc1)Nc1cccc(Cl)c1`, the inhibition entry in the data set on RAW264.7 [6] is “Active”.

With `O=C(COc1ccc(/C=C2\SC(=O)N(CCN3CCCCC3)C2=O)cc1)Nc1cccc(Cl)c1`, the inhibition entry in the data set on RAW264.7 [6] was “Active”.

For the compound `O=C(O)CN1C(=O)/C(=C/c2ccc(OCC(=O)Nc3cccc(Cl)c3)cc2)SC1=S`, the 50% inhibitory concentration (IC50) was 68.9 µM in the data set on RAW264.7 [1], over 80 µM in the data set with RAW264.7 [2], over 80 µM in the data set on RAW264.7 [3] and 47.8 µM in [7]. Moreover, in the data set with RAW264.7 [6], the inhibition result is “Active”.

As for `COC(=O)CCN1C(=O)S/C(=C\c2ccc(OCC(=O)Nc3cccc(Cl)c3)cc2)C1=O`, the inhibition entry in the data set with RAW264.7 [6] is “Active”.

With `COc1cc(/C=C2\SC(=O)NC2=O)cc(OC)c1OCC(=O)Nc1cccc(Cl)c1`, the half-life is 7.83 h in data set [8] and 5.9 h in [13]. This compound also yielded a bioavailability in [9] of 27.2%. Besides, the AUC(0-t) came to 387 ng·h/mL in [10] and 421 ng·h/mL in data set [15]. For the same compound, the 50% inhibitory concentration (IC50) in the data set with RAW264.7 [1] is 45.6 µM; in the data set with RAW264.7 [2] it was over 80 µM; with RAW264.7 [3], over 80 µM; in data set [7] it was 25.2 µM. Also, in the data set on Mus musculus, the inhibition in vivo at 10 mg/kg turned out to be 26.1%. In the data set on Rattus norvegicus, the outcome was Active. The figures for the Tmax in data set [11] and in data set [14] were 4.2 min and 2.27 h, respectively. Moreover, the Cmax came to 332 ng/mL in [12] and 46.2 ng/mL in data set [16]. Also, the inhibition result in the data set on RAW264.7 [6] was “Active”. Also, the solubility (kinetic) in [4] was under 500 µg/mL; in [5], 3100 µg/mL (≈ 6.91 mM).

Turning to `O=C(COc1ccc(/C=C2\NC(=O)N(Cc3ccccc3)C2=O)cc1)Nc1cccc(Cl)c1`, the IC50 is 75.4 µM with RAW264.7 [1], 46.3 µM in the data set with RAW264.7 [2], over 80 µM in the data set with RAW264.7 [3] and 43.2 µM in data set [7]. In addition, the inhibition result with RAW264.7 [6] is “Active”.

Consider `N=C1NC(=O)/C(=C/c2ccc(OCC(=O)Nc3cccc(Cl)c3)cc2)S1`, for which the inhibition entry with RAW264.7 [6] is “Active”.

For `COCN1C(=O)S/C(=C\c2ccc(OCC(=O)Nc3cccc(Cl)c3)cc2)C1=O`, the IC50 is over 80 µM in the data set on RAW264.7 [1], 72.5 µM with RAW264.7 [2] and 68.4 µM with RAW264.7 [3].

Source of the values: ChEMBL document CHEMBL3407361, “Structural exploration, synthesis and pharmacological evaluation of novel 5-benzylidenethiazolidine-2,4-dione derivatives as iNOS inhibitors against inflammatory diseases” (Eur J Med Chem, 2015).
